In paper PMC10744608, “Simplified Synthesis of Renieramycin T Derivatives to Target Cancer Stem Cells via β-Catenin Proteasomal Degradation in Human Lung Cancer” (Marine Drugs, 2023):

Columns and labels:
[1] = tested on: CSC spheroids of A549, H23, and H292 cells; assay: 3D CSC spheroid formation with immunofluorescence; assay type: cell-based, human; conditions: 50 nM; for levels of CD133, CD44, and OCT4 in CSC spheroids: 24 h, immunofluorescence
Description: A three-dimensional (3D) spheroid was employed to generate the spheroids containing CSC subpopulations from lung cancer cells. For CSC-rich population establishment, the spheroid culture assay used in this study was slightly modified from a previously described method. Lung cancer cells, specifically NSCLC cells (A549, H23, and H292), were seeded onto a 24-well ultra-low attachment plate, with approximately density of 2.5 × 10^3 cells per well in a medium with a 1% FBS and Nutristem mix. The primary spheroids were allowed to form for 7 days. Every 2 days, fresh medium with 1% FBS and Nutristem mix was replenished. On day 7 of primary spheroid culture, primary spheroids were resuspended into single cells using trypsin, and again 2.5 × 10^3 cells/well were seeded into a 24-well ultra-low attachment plate. Secondary spheroids were allowed to form for 10 days. After 10 days, the secondary spheroids were treated with 50 nM concentration DH_32 for 24 h treatment. The spheroids that had undergone treatment were retrieved through centrifugation at 1000× g for 30 s and then rinsed with PBS. The spheroids were fixed with 4% paraformaldehyde in a 50 μL PBS solution for 20 min at room temperature, and then they were made permeable by treating them with 0.1% Triton X in PBS for 5 min at room temperature. The spheroids were exposed to a mixture of 5% FBS and 2% BSA in PBS for 1 h at room temperature to prevent non-specific protein interactions. Subsequently, the spheroids were incubated with primary antibodies (CD133, CD44, and OCT4) at a 1:250 dilution in a 30 μL PBS solution containing 2.5% FBS and 1% BSA, and this incubation took place overnight at 4 °C. On the subsequent day, the spheroids were rinsed with PBS and then exposed to secondary antibodies (Alexa Fluor 594-conjugated goat anti-rabbit IgG (H+L) and Alexa Fluor 488-conjugated goat anti-mouse IgG (H+L)) at a 1:500 dilution in a 30 μL PBS solution containing 2.5% FBS and 1% BSA at room temperature for 1 h 30 min. These spheroids were subjected to staining with Hoechst 33342 (Sigma, St. Louis, MO, USA) at a concentration of 10 μg/mL for a duration of 15 min at room temperature. Subsequently, the fluorescence signals were observed using a fluorescence microscope (Olympus IX 51 with DP70; Olympus America Inc., Center Valley, PA, USA). The intensity of fluorescence was quantified using Image J software. NSCLC spheroids treated with RT at 50 nM and cisplatin at 50 nM served as the positive control.

H292 cells [2] = assay: Nuclear staining assay (Hoechst 33342/PI); assay type: cell-based, human; conditions: H292, 0.5 μM, 24 h; for percentage of apoptosis: Hoechst 33342; for percentage of dead cells: PI staining
Description: (§1) The assessment of apoptosis and dead cell counts was performed through costaining with Hoechst 33342 and propidium iodide (PI). Human NSCLCs (1 × 10^4 cells per well) were seeded in a 96-well plate, incubated at 37 °C, and exposed to all right-half RT analogs at a concentration of 0.5 μM. After treatment, the cells were rinsed with PBS and subjected to co-staining with Hoechst 33342 (10 μg/mL) and propidium iodide (PI) (0.02 μg/mL) for 30 min at 37 °C. Fluorescence microscopy (Olympus 1X51 with a DP70 digital camera, Tokyo, Japan) was utilized to observe the fragmented nuclei indicative of apoptotic cells stained with Hoechst 33342 and the positive PI staining for dead cells. Subsequently, the percentages of apoptosis and dead cells were calculated. In this experiment, RT at a concentration of 0.5 μM served as the positive control.

H23 cells [3] = assay: Nuclear staining assay (Hoechst 33342/PI); assay type: cell-based, human; conditions: H23, 0.5 μM, 24 h; for percentage of apoptosis: Hoechst 33342; for percentage of dead cells: PI staining
Description: as §1

A549 cells [4] = assay: Nuclear staining assay (Hoechst 33342/PI); assay type: cell-based, human; conditions: A549, 0.5 μM, 24 h; for percentage of apoptosis: Hoechst 33342; for percentage of dead cells: PI staining
Description: as §1

[5] = tested on: human dermal papilla cells (DP); assay: MTT cell viability assay, normal cells; assay type: cell-based; conditions: for IC50: DP normal cells, 24 h treatment, MTT
H292 cells [6] = assay: MTT cell viability assay; assay type: cell-based, human
Description: (§2) The cell viability was assessed using an MTT assay, determining the half-maximal inhibitory concentration (IC50) to screen right-half RT analogs (DH_18, DH_21, DH_32, DH_35, DH_38, and DH_39). Human NSCLC cells (A549, H23, and H292) were seeded in a 96-well cell culture plate at a density of 1 × 10^4 cells per well and incubated for 24 h at 37 °C. Subsequently, the culture medium was aspirated, and a complete medium with varying concentrations (0–100 μM) of right-half RT analogs was added for 24 h. Following the removal of the compound-containing medium, an MTT reagent at a concentration of 4 mg/mL was applied and incubated for 3 h at 37 °C. The MTT reagent was replaced with 100 μL of DMSO to dissolve the formazan crystals. The measurement of the formazan product was conducted at 570 nm utilizing a microplate reader. RT served as the positive control in this experiment.

H23 cells [7] = assay: MTT cell viability assay; assay type: cell-based, human
Description: as §2

A549 cells [8] = assay: MTT cell viability assay; assay type: cell-based, human; conditions: A549, 24 h treatment
Description: as §2

BEAS2B cells = assay: MTT cell viability assay, normal cells; assay type: cell-based, human; conditions: for IC50: BEAS2B normal cells, 24 h treatment, MTT

SMILES: COC1=C(C)C(=O)C2=C(C1=O)[C@@H]1CN(Cc3ccc4ccccc4c3)[C@@H](C#N)[C@H](C2)N1C [DH_32, (1R,4R,5S)-9-methoxy-8,11-dimethyl-3-(naphthalen-2-ylmethyl)-7,10-dioxo-1,2,3,4,5,6,7,10-octahydro-1,5-epiminobenzo[d]azocine-4-carbonitrile]
- size of spheroid formations [1]: decreased
- levels of CD133, CD44, and OCT4 in CSC spheroids [1]: dramatic decrease
- percentage of apoptosis (H292 cells [2]): 34.13 ± 0.97%
- percentage of dead cells (H292 cells [2]): 29.82 ± 1.26%
- percentage of apoptosis (H23 cells [3]): 39.29 ± 1.88%
- percentage of dead cells (H23 cells [3]): 35.07 ± 1.67%
- percentage of apoptosis (A549 cells [4]): 29.33 ± 0.51%
- percentage of dead cells (A549 cells [4]): 23.38 ± 0.96%
- selectivity index (SI) ([5]; DP cells versus A549): 8.42
- selectivity index (SI) ([5]; DP cells versus H23): 16.51
- selectivity index (SI) ([5]; DP cells versus H292): 23.40
- IC50 ([5]; Homo sapiens, Human dermal papilla cell): 34.2 ± 1.22 µM
- IC50 (H292 cells [6]; Homo sapiens, NCI-H292, H292, 24 h treatment): 1.46 ± 0.06 µM
- IC50 (H23 cells [7]; Homo sapiens, NCI-H23, H23, 24 h treatment): 2.07 ± 0.11 µM
- IC50 (A549 cells [8]; Homo sapiens): 4.06 ± 0.24 µM
- selectivity index (SI) (BEAS2B cells; BEAS2B cells versus A549): 1.25
- selectivity index (SI) (BEAS2B cells; BEAS2B cells versus H23): 2.44
- selectivity index (SI) (BEAS2B cells; BEAS2B cells versus H292): 3.47
- IC50 (BEAS2B cells; Homo sapiens, BEAS-2B): 5.06 ± 0.22 µM

SMILES: CC=C(C)C(=O)OCC1c2c(c(O)c(C)c3c2OCO3)CC2C3C4=C(CC(C(C#N)N12)N3C)C(=O)C(C)=C(OC)C4=O (stereo not shown) [RT, Renieramycin T]
- levels of CD133, CD44, and OCT4 in CSC spheroids [1]: lesser effects
- percentage of apoptosis (H292 cells [2]): 29.63 ± 0.47%
- percentage of dead cells (H292 cells [2]): 26.31 ± 1.04%
- percentage of apoptosis (H23 cells [3]): 33.41 ± 0.53%
- percentage of dead cells (H23 cells [3]): 31.15 ± 0.48%
- percentage of apoptosis (A549 cells [4]): 24.95 ± 1.32%
- percentage of dead cells (A549 cells [4]): 21.60 ± 0.99%
- IC50 [5]: 13.7 ± 0.33 µM
- IC50 (H292 cells [6]; H292, 24 h treatment): 1.52 ± 0.05 µM
- IC50 (H23 cells [7]; H23, 24 h treatment): 2.93 ± 0.07 µM
- IC50 (A549 cells [8]): 5.76 ± 0.23 µM
- IC50 (BEAS2B cells): 1.18 ± 0.02 µM
